Test results: US7691818B2, “Peptidomimetic inhibitors of retroviral proteases and their use as antivirals” (Universita' Degli Studi Di Treiste, priority 2004, dated 2010)

molecular target: HIV-1 recombinant protease (Human immunodeficiency virus type 1 group M subtype B, UniProt P04585); assay: biochemical
Experimental: Inhibitory activity was measured in accordance with the method described by A. Tossi et al. (Eur. J. Biochem., 2000, 267, 1715) using an HIV-1 recombinant protease supplied by Bioczech (Prague, CZ) and the fluorogenic substrate Abz-Thr-Ile-Nle-Phe(p-NO2)-Gln-Arg-NH2 (abbreviated hereinafter as Abz-NF*-6) supplied by Bachem (Bubendorf, CH). Specifically, 189 μL of a 30 μM solution of Abz-NF*-6 in a 100 mM MES-NaOH buffer (pH 5.5) containing NaCl (400 mM), EDTA (1 mM), DTT (1 mM) and BSA (1 mg/mL) are incubated at 25° C. in a cuvette placed directly in the spectrofluorimeter, irradiated at 325 mn and checking that there is no increase of emission at 420 nm due to the spontaneous hydrolysis of the substrate. After 1.5 minutes 11 μL of a standard solution of HIV-PR (0.4 mg/mL) in the same buffer are added and the variation in fluorescence, due to catalysed hydrolysis of the Abz-NF*-6 substrate, is recorded for 1 minute. 2 μL of the inhibitor solution in DMSO or MES buffer are then added and the variation in fluorescence over time due to hydrolysis of the Abz-NF*-6 substrate in the presence of the specific inhibitor is recorded.

Compared with `CCC(C)C(NC(=O)C(NC(C)=O)C(C)C)C(=O)N1CCC[C@H]1[C@H](O)[C@@H](O)[C@H](Cc1ccccc1)NC(=O)C(CC(N)=O)NC(=O)C(CC(C)C)NC(=O)C(CO)NC(C)=O` (stereo partly drawn) [(21), NH-Ac-Ser-Leu-Asn-Phe-[φ]-Pro-Ile-Val-NH-Ac], `CC(=O)N[C@@H](Cc1c[nH]c2ccccc12)C(=O)N[C@H](C(=O)N[C@@H](Cc1ccccc1)[C@H](O)[C@@H](O)[C@@H]1CCCN1C(=O)[C@@H](NC(=O)[C@H](Cc1c[nH]c2ccccc12)NC(C)=O)C(C)C)C(C)C` [(22), NH-Ac-Trp-Val-Phe-[φ]-Pro-Val-Trp-NH-Ac] is 10-fold lower in IC50: 0.61 nM for the first, 0.06 nM for the second.

First: Cc1cccc(C)c1OCC(=O)N[C@@H](Cc1ccccc1)[C@H](O)[C@@H](O)[C@@H]1CCCN1C(=O)COc1ccccc1 [(25), DmPoa-Phe-[φ]-Pro-Poa]
Second: Cc1cccc(C)c1OCC(=O)N[C@@H](Cc1ccccc1)[C@H](O)[C@@H](O)[C@@H]1CCCN1C(=O)COc1c(C)cccc1C [(23), DmPoa-Phe-[φ]-Pro-DmPoa]
The IC50 of the first is 8.8-fold higher: 84.7 nM for the first, 9.6 nM for the second.

With `CC(=O)NC(Cc1c[nH]c2ccccc12)C(=O)NC(C(=O)N1CCC[C@H]1[C@H](O)[C@@H](O)[C@H](Cc1ccccc1)NC(=O)COc1c(C)cccc1C)C(C)C` (stereo partly drawn) [(24), DmPoa-Phe-[φ]-Pro-Val-Trp-NH-Ac] the IC50 was 75.3 nM.
